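Growth conditions: 96-well plates. Treatment: test compound, 48 hours, 5 concentrations. Analysis: linear interpolation between bracketing concentrations; unreached endpoints set to highest concentration. TGI: total growth inhibition.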
What was measured:
Experiment in all cases: NCI anticancer screen, dose series, 48 h
XF 498 CNS = test system: XF 498 CNS
M14 melanoma = test system: M14 melanoma
HCT-15 colon = test system: HCT-15 colon
LOX IMVI melanoma = test system: LOX IMVI melanoma
NCI-H23 lung = test system: NCI-H23 lung
U251 CNS = test system: U251 CNS
OVCAR-8 ovarian = test system: OVCAR-8 ovarian
COLO 205 colon = test system: COLO 205 colon
SR leukemia = test system: SR leukemia
SNB-78 CNS = test system: SNB-78 CNS
MOLT-4 leukemia = test system: MOLT-4 leukemia
CAKI-1 renal = test system: CAKI-1 renal
TK-10 renal = test system: TK-10 renal
OVCAR-4 ovarian = test system: OVCAR-4 ovarian
KM20L2 colon = test system: KM20L2 colon
SN12C renal = test system: SN12C renal
HOP-18 NSCLC = test system: HOP-18 NSCLC
SNB-75 CNS = test system: SNB-75 CNS
EKVX NSCLC = test system: EKVX NSCLC
RXF-631 renal = test system: RXF-631 renal
OVCAR-5 ovarian = test system: OVCAR-5 ovarian
UACC-62 melanoma = test system: UACC-62 melanoma
IGROV1 ovarian = test system: IGROV1 ovarian
HCT-116 colon = test system: HCT-116 colon
DMS 273 small cell lung = test system: DMS 273 small cell lung
M19-MEL melanoma = test system: M19-MEL melanoma
786-0 renal = test system: 786-0 renal
ACHN renal = test system: ACHN renal
UO-31 renal = test system: UO-31 renal
RXF 393 renal = test system: RXF 393 renal
HT29 colon = test system: HT29 colon
HOP-92 NSCLC = test system: HOP-92 NSCLC
HOP-62 NSCLC = test system: HOP-62 NSCLC
SK-OV-3 ovarian = test system: SK-OV-3 ovarian
A549 NSCLC = test system: A549 NSCLC
KM12 colon = test system: KM12 colon
HCC-2998 colon = test system: HCC-2998 colon
HL-60(TB) leukemia = test system: HL-60(TB) leukemia
SK-MEL-28 melanoma = test system: SK-MEL-28 melanoma
SNB-19 CNS = test system: SNB-19 CNS
DMS 114 small cell lung = test system: DMS 114 small cell lung
LXFL 529 NSCLC = test system: LXFL 529 NSCLC
SF-295 CNS = test system: SF-295 CNS
SK-MEL-5 melanoma = test system: SK-MEL-5 melanoma
SF-539 CNS = test system: SF-539 CNS
UACC-257 melanoma = test system: UACC-257 melanoma
RPMI-8226 leukemia = test system: RPMI-8226 leukemia
CCRF-CEM leukemia = test system: CCRF-CEM leukemia
MALME-3M melanoma = test system: MALME-3M melanoma
DLD-1 colon = test system: DLD-1 colon
SW-620 colon = test system: SW-620 colon
K-562 leukemia = test system: K-562 leukemia
OVCAR-3 ovarian = test system: OVCAR-3 ovarian
SK-MEL-2 melanoma = test system: SK-MEL-2 melanoma
SF-268 CNS = test system: SF-268 CNS
NCI-H460 lung = test system: NCI-H460 lung
NCI-H226 lung = test system: NCI-H226 lung
NCI-H522 lung = test system: NCI-H522 lung
A498 renal = test system: A498 renal

COc1ccc(/C=N/Nc2nc(-c3cc4oc(=O)n(C)c4cc3Cl)cs2)cc1OC
TGI (XF 498 CNS): 88.5 µM
TGI (M14 melanoma): > 100 µM
TGI (HCT-15 colon): 91.8 µM
TGI (LOX IMVI melanoma): > 100 µM
TGI (NCI-H23 lung): > 100 µM
TGI (U251 CNS): > 100 µM
TGI (OVCAR-8 ovarian): > 100 µM
TGI (COLO 205 colon): > 100 µM
TGI (SR leukemia): > 100 µM
TGI (SNB-78 CNS): > 100 µM
TGI (MOLT-4 leukemia): > 100 µM
TGI (CAKI-1 renal): > 100 µM
TGI (TK-10 renal): > 100 µM
TGI (OVCAR-4 ovarian): 31.9 µM
TGI (KM20L2 colon): > 100 µM
TGI (SN12C renal): 88.5 µM
TGI (HOP-18 NSCLC): > 100 µM
TGI (SNB-75 CNS): 69.5 µM
TGI (EKVX NSCLC): > 100 µM
TGI (RXF-631 renal): > 100 µM
TGI (OVCAR-5 ovarian): > 100 µM
TGI (UACC-62 melanoma): > 100 µM
TGI (IGROV1 ovarian): 51 µM
TGI (HCT-116 colon): > 100 µM
TGI (DMS 273 small cell lung): > 100 µM
TGI (M19-MEL melanoma): > 100 µM
TGI (786-0 renal): > 100 µM
TGI (ACHN renal): 62.3 µM
TGI (UO-31 renal): > 100 µM
TGI (RXF 393 renal): 62.6 µM
TGI (HT29 colon): > 100 µM
TGI (HOP-92 NSCLC): 77.1 µM
TGI (HOP-62 NSCLC): > 100 µM
TGI (SK-OV-3 ovarian): > 100 µM
TGI (A549 NSCLC): 36.2 µM
TGI (KM12 colon): > 100 µM
TGI (HCC-2998 colon): > 100 µM
TGI (HL-60(TB) leukemia): > 100 µM
TGI (SK-MEL-28 melanoma): > 100 µM
TGI (SNB-19 CNS): > 100 µM
TGI (DMS 114 small cell lung): 39 µM
TGI (LXFL 529 NSCLC): > 100 µM
TGI (SF-295 CNS): > 100 µM
TGI (SK-MEL-5 melanoma): 14.7 µM
TGI (SF-539 CNS): > 100 µM
TGI (UACC-257 melanoma): > 100 µM
TGI (RPMI-8226 leukemia): > 100 µM
TGI (CCRF-CEM leukemia): > 100 µM
TGI (MALME-3M melanoma): > 100 µM
TGI (DLD-1 colon): > 100 µM
TGI (SW-620 colon): > 100 µM
TGI (K-562 leukemia): > 100 µM
TGI (OVCAR-3 ovarian): > 100 µM
TGI (SK-MEL-2 melanoma): > 100 µM
TGI (SF-268 CNS): > 100 µM
TGI (NCI-H460 lung): > 100 µM

NC(=Nc1ccc(S(=O)(=O)Nc2cnc3ccccc3n2)cc1)/N=C(/N)Nc1ccc(Br)cc1
TGI (XF 498 CNS): > 100 µM
TGI (M14 melanoma): > 100 µM
TGI (HCT-15 colon): > 100 µM
TGI (LOX IMVI melanoma): > 100 µM
TGI (NCI-H23 lung): > 100 µM
TGI (U251 CNS): > 100 µM
TGI (OVCAR-8 ovarian): > 100 µM
TGI (NCI-H226 lung): > 100 µM
TGI (COLO 205 colon): > 100 µM
TGI (SR leukemia): > 100 µM
TGI (SNB-78 CNS): > 100 µM
TGI (MOLT-4 leukemia): > 100 µM
TGI (CAKI-1 renal): > 100 µM
TGI (TK-10 renal): > 100 µM
TGI (OVCAR-4 ovarian): > 100 µM
TGI (KM20L2 colon): > 100 µM
TGI (SN12C renal): > 100 µM
TGI (HOP-18 NSCLC): > 100 µM
TGI (SNB-75 CNS): > 100 µM
TGI (EKVX NSCLC): > 100 µM
TGI (RXF-631 renal): > 100 µM
TGI (OVCAR-5 ovarian): > 100 µM
TGI (UACC-62 melanoma): > 100 µM
TGI (IGROV1 ovarian): > 100 µM
TGI (DMS 273 small cell lung): > 100 µM
TGI (M19-MEL melanoma): > 100 µM
TGI (786-0 renal): > 100 µM
TGI (ACHN renal): > 100 µM
TGI (UO-31 renal): > 100 µM
TGI (HT29 colon): > 100 µM
TGI (HOP-92 NSCLC): > 100 µM
TGI (HOP-62 NSCLC): > 100 µM
TGI (SK-OV-3 ovarian): > 100 µM
TGI (A549 NSCLC): > 100 µM
TGI (KM12 colon): > 100 µM
TGI (HCC-2998 colon): > 100 µM
TGI (SK-MEL-28 melanoma): > 100 µM
TGI (SNB-19 CNS): > 100 µM
TGI (DMS 114 small cell lung): > 100 µM
TGI (LXFL 529 NSCLC): > 100 µM
TGI (SF-295 CNS): > 100 µM
TGI (SK-MEL-5 melanoma): > 100 µM
TGI (SF-539 CNS): > 100 µM
TGI (UACC-257 melanoma): > 100 µM
TGI (NCI-H522 lung): > 100 µM
TGI (RPMI-8226 leukemia): > 100 µM
TGI (CCRF-CEM leukemia): > 100 µM
TGI (MALME-3M melanoma): > 100 µM
TGI (DLD-1 colon): > 100 µM
TGI (SW-620 colon): > 100 µM
TGI (A498 renal): > 100 µM
TGI (K-562 leukemia): > 100 µM
TGI (OVCAR-3 ovarian): > 100 µM
TGI (SK-MEL-2 melanoma): > 100 µM
TGI (SF-268 CNS): > 100 µM
TGI (NCI-H460 lung): > 100 µM

C[n+]1[se]c2ccccc2c1Cl
TGI (XF 498 CNS): > 54.9 µM
TGI (M14 melanoma): 27.8 µM
TGI (HCT-15 colon): > 67.3 µM
TGI (LOX IMVI melanoma): 39.7 µM
TGI (NCI-H23 lung): 45.8 µM
TGI (U251 CNS): > 74.4 µM
TGI (OVCAR-8 ovarian): > 84.7 µM
TGI (NCI-H226 lung): > 71.1 µM
TGI (COLO 205 colon): > 59.8 µM
TGI (SNB-78 CNS): > 72.8 µM
TGI (MOLT-4 leukemia): > 63.6 µM
TGI (CAKI-1 renal): > 56.2 µM
TGI (TK-10 renal): > 63 µM
TGI (OVCAR-4 ovarian): > 60 µM
TGI (KM20L2 colon): > 75.7 µM
TGI (SN12C renal): 23.7 µM
TGI (HOP-18 NSCLC): 52.9 µM
TGI (SNB-75 CNS): 45.8 µM
TGI (EKVX NSCLC): 52.1 µM
TGI (RXF-631 renal): > 67.2 µM
TGI (OVCAR-5 ovarian): > 79.9 µM
TGI (UACC-62 melanoma): 33.2 µM
TGI (IGROV1 ovarian): > 77.5 µM
TGI (HCT-116 colon): 31 µM
TGI (DMS 273 small cell lung): 41.5 µM
TGI (M19-MEL melanoma): 27.3 µM
TGI (786-0 renal): > 59.2 µM
TGI (ACHN renal): > 70.7 µM
TGI (UO-31 renal): > 63.5 µM
TGI (RXF 393 renal): 50.4 µM
TGI (HT29 colon): > 76.3 µM
TGI (HOP-92 NSCLC): 20.2 µM
TGI (HOP-62 NSCLC): > 58.8 µM
TGI (SK-OV-3 ovarian): > 100 µM
TGI (A549 NSCLC): > 94 µM
TGI (KM12 colon): > 56.7 µM
TGI (HCC-2998 colon): > 81.9 µM
TGI (HL-60(TB) leukemia): 19.6 µM
TGI (SK-MEL-28 melanoma): > 54.7 µM
TGI (SNB-19 CNS): > 100 µM
TGI (DMS 114 small cell lung): > 70 µM
TGI (LXFL 529 NSCLC): > 100 µM
TGI (SF-295 CNS): 50.9 µM
TGI (SK-MEL-5 melanoma): 31.1 µM
TGI (SF-539 CNS): 37.1 µM
TGI (UACC-257 melanoma): > 46.9 µM
TGI (NCI-H522 lung): 42.7 µM
TGI (RPMI-8226 leukemia): > 67 µM
TGI (CCRF-CEM leukemia): 21.5 µM
TGI (MALME-3M melanoma): > 56.9 µM
TGI (DLD-1 colon): > 59.7 µM
TGI (SW-620 colon): 42.6 µM
TGI (A498 renal): > 100 µM
TGI (K-562 leukemia): > 70.7 µM
TGI (OVCAR-3 ovarian): > 71.9 µM
TGI (SK-MEL-2 melanoma): 28.1 µM
TGI (SF-268 CNS): 52.4 µM
TGI (NCI-H460 lung): > 100 µM
